Measured values: ChEMBL document CHEMBL5042526, “Design, Synthesis, and Biological Evaluation of Triazolone Derivatives as Potent PPARα/δ Dual Agonists for the Treatment of Nonalcoholic Steatohepatitis” (J Med Chem, 2022)
Calls of active or inactive are those of the source. No cut-off for these calls is given here.

Columns and labels:
[1] = test system: AML12; experiment: Agonist activity against PPARalpha/delta (unknown origin) assessed as upregulation of Pdk4 mRNA expression in […] cells at 8 nM incubated for 12 hrs by RT-PCR analysis; assay type: cell-based; details: filed as agonist
[2] = test system: Mus musculus; experiment: Anti-fibrosis effect in CCl4 induced liver fibrosis C57BL/6JNifdc mouse model assessed as downregulation of alpha-SMA expression at 3 to 30 mg/kg, po after 20 hrs by Western blot analysis; assay type: functional, organism-based; details: dose 3-30 mg/kg
[3] = test system: Mus musculus; experiment: In vivo agonist activity against PPARalpha/delta assessed as upregulation of […] mRNA expression in C57BL/6Nifdc mouse skeletal muscle at 10 mg/kg, po for 4 days; assay type: functional, organism-based; details: time 4.0 day
[4] = test system: Mus musculus; experiment: Anti-fibrosis effect in CCl4 induced liver fibrosis C57BL/6JNifdc mouse model by measuring serum triglyceride level at 3 to 30 mg/kg, po; assay type: functional, organism-based; details: dose 3-30 mg/kg
[5] = test system: Mus musculus; experiment: Anti-NASH activity in HF-CDAA-induced nonalcoholic steatohepatitis C57BL/6JNifdc mouse model assessed as reduction in steatosis by measuring hepatic triglyceride level at 3 to 30 mg/kg, po; assay type: functional, organism-based; details: dose 3-30 mg/kg
[6] = test system: Mus musculus; experiment: In vivo agonist activity at PPARalpha/delta assessed as upregulation of Pex11a mRNA expression in C57BL/6Nifdc mouse liver at 10 mg/kg, po for 4 days; assay type: functional, organism-based; details: time 4.0 day
[7] = test system: Mus musculus; experiment: Anti-fibrosis effect in HF-CDAA-induced nonalcoholic steatohepatitis C57BL/6JNifdc mouse model assessed as expression of Tgfb1 marker at 10 mg/kg, po after 20 hrs by Western blot analysis; assay type: functional, organism-based
[8] = test system: Mus musculus; experiment: Anti-inflammatory activity in HF-CDAA-induced nonalcoholic steatohepatitis C57BL/6JNifdc mouse model assessed as decrease in Ccl4 mRNA expression at 10 mg/kg, po; assay type: functional, organism-based
[9] = test system: Mus musculus; experiment: In vivo agonist activity at PPARalpha/delta assessed as upregulation of […] mRNA expression in C57BL/6Nifdc mouse liver at 10 mg/kg, po for 4 days; assay type: functional, organism-based; details: time 4.0 day
[10] = test system: Mus musculus; experiment: In vivo agonist activity against PPARalpha/delta assessed as upregulation of Aldh3a2 mRNA expression in C57BL/6Nifdc mouse liver at 10 mg/kg, po for 4 days; assay type: functional, organism-based; details: time 4.0 day
[11] = test system: AML12; experiment: Agonist activity against PPARalpha/delta (unknown origin) assessed as upregulation of Cpt1A mRNA expression in […] cells at 8 nM incubated for 12 hrs by RT-PCR analysis; assay type: cell-based; details: filed as agonist
[12] = test system: Mus musculus; experiment: In vivo agonist activity at PPARalpha/delta assessed as upregulation of Retsat-mRNA expression in C57BL/6Nifdc mouse liver at 10 mg/kg, po for 4 days; assay type: functional, organism-based; details: time 4.0 day
[13] = biological target: T1, Peroxisome proliferator-activated receptor gamma (Mus musculus, UniProt P37238); experiment: Agonist activity at mouse PPARgamma in Cos7 cells transfected with pBIND and pGL4.35 Gal4 UAS Luc reporter plasmid by measuring luciferase activity incubated for 16 hrs by luciferase reporter gene assay
T1 sequence (P37238 whole entry): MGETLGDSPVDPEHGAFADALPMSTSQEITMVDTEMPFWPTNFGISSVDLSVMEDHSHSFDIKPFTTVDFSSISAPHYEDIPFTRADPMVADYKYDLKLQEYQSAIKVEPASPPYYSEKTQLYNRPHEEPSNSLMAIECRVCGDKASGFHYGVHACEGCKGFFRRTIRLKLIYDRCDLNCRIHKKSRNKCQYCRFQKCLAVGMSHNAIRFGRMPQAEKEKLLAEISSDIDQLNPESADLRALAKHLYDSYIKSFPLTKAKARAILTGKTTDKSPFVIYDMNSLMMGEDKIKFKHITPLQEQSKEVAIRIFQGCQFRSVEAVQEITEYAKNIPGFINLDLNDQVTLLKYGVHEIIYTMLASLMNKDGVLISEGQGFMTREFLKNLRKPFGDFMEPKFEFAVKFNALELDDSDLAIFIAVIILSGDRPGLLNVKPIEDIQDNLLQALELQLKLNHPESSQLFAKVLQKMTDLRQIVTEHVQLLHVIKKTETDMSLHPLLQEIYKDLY

[14] = test system: HepG2; experiment: Agonist activity against PPARalpha/delta (unknown origin) assessed as upregulation of PDK4 mRNA expression in human HepG2 cells at 8 nM incubated for 12 hrs by RT-PCR analysis; assay type: cell-based; details: filed as agonist
[15] = test system: Mus musculus; experiment: In vivo agonist activity against PPARalpha/delta assessed as upregulation of -Retsat mRNA expression in C57BL/6Nifdc mouse skeletal muscle at 10 mg/kg, po for 4 days; assay type: functional, organism-based; details: time 4.0 day
[16] = test system: Mus musculus; experiment: In vivo agonist activity against PPARalpha/delta assessed as upregulation of Abcg2 mRNA expression in C57BL/6Nifdc mouse liver at 10 mg/kg, po for 4 days; assay type: functional, organism-based; details: time 4.0 day
[17] = test system: Mus musculus; experiment: In vivo agonist activity at PPARalpha/delta assessed as upregulation of Hmgcs2 mRNA expression in C57BL/6Nifdc mouse liver at 10 mg/kg, po for 4 days; assay type: functional, organism-based; details: time 4.0 day
[18] = test system: Mus musculus; experiment: In vivo agonist activity against PPARalpha/delta assessed as upregulation of -Mlycd mRNA expression in C57BL/6Nifdc mouse skeletal muscle at 10 mg/kg, po for 4 days; assay type: functional, organism-based; details: time 4.0 day
[19] = test system: Mus musculus; experiment: In vivo agonist activity against PPARalpha/delta assessed as upregulation of Cpt1b mRNA expression in C57BL/6Nifdc mouse skeletal muscle at 10 mg/kg, po for 4 days; assay type: functional, organism-based; details: time 4.0 day
[20] = test system: Mus musculus; experiment: In vivo agonist activity against PPARalpha/delta assessed as upregulation of Me1 mRNA expression in C57BL/6Nifdc mouse liver at 10 mg/kg, po for 4 days; assay type: functional, organism-based; details: time 4.0 day
[21] = test system: Mus musculus; experiment: In vivo agonist activity at PPARalpha/delta assessed as upregulation of Lipa mRNA expression in C57BL/6Nifdc mouse liver at 10 mg/kg, po for 4 days; assay type: functional, organism-based; details: time 4.0 day
[22] = test system: Mus musculus; experiment: In vivo agonist activity against PPARalpha/delta assessed as upregulation of Pdk4 mRNA expression in C57BL/6Nifdc mouse skeletal muscle at 10 mg/kg, po for 4 days; assay type: functional, organism-based; details: time 4.0 day
[23] = test system: Mus musculus; experiment: In vivo agonist activity at PPARalpha/delta assessed as upregulation of Acox1 mRNA expression in C57BL/6Nifdc mouse liver at 10 mg/kg, po for 4 days; assay type: functional, organism-based; details: time 4.0 day
[24] = test system: HepG2; experiment: Agonist activity against PPARalpha/delta (unknown origin) assessed as upregulation of CPT1A mRNA expression in human HepG2 cells at 8 nM incubated for 12 hrs by RT-PCR analysis; assay type: cell-based; details: filed as agonist
[25] = test system: Mus musculus; experiment: In vivo agonist activity against PPARalpha/delta assessed as upregulation of Abca1 mRNA expression in C57BL/6Nifdc mouse skeletal muscle at 10 mg/kg, po for 4 days; assay type: functional, organism-based; details: time 4.0 day
[26] = test system: C2C12; experiment: Agonist activity against PPARalpha/delta (unknown origin) assessed as upregulation of Cpt1A mRNA expression in […] cells incubated for 12 hrs by RT-PCR analysis; assay type: cell-based; details: filed as agonist, dose 8-200 nM
[27] = test system: Mus musculus; experiment: Anti-NASH activity in HF-CDAA-induced nonalcoholic steatohepatitis C57BL/6JNifdc mouse model assessed as decrease in level of serum ALT 10 mg/kg, po by automatic biochemical analysis; assay type: functional, organism-based
[28] = test system: Mus musculus; experiment: In vivo agonist activity at PPARalpha/delta assessed as upregulation of Csnk1g2 mRNA expression in C57BL/6Nifdc mouse liver at 10 mg/kg, po for 4 days; assay type: functional, organism-based; details: time 4.0 day

Cc1cc(Cn2ncn(-c3ccc(OC(F)(F)F)cc3)c2=O)cc(C)c1OC(C)(C)C(=O)O
Activity [1]: Active
Activity [2]: Active
Activity [3]: Active
Activity [4]: Active
Activity [5]: Active
Activity [6]: Active
Activity [7]: Active
Activity [8]: Active
Activity [9]: Active
Activity [10]: Active
Activity [11]: Active
Activity [12]: Active
EC50 [13]: 1010 nM
Activity [14]: Active
Activity [15]: Active
Activity [16]: Active
Activity [17]: Active
Activity [18]: Active
Activity [19]: Active
Activity [20]: Active
Activity [21]: Active
Activity [22]: Active
Activity [23]: Active
Activity [24]: Active
Activity [25]: Active
Activity [26]: Dose-Dependent Effect
Activity [27]: Active
Activity [28]: Active
